How the values were obtained:
[1] = test system: adjuvant induced experimental polyarthritis; conditions: result in words; literature; cited from earlier work
[2] = test system: adjuvant induced arthritis (Freund's adjuvant) in rats; assay: Adjuvant induced arthritis in rats (oral, once daily days 0 through 13 post challenge); type: in vivo, Royal Hart, Wistar strain rats
Procedure: Groups of three Royal Hart, Wistar strain rats weighing 200±10 grams each were injected intradermally in the right hind paw with Freund's adjuvant (dried human tubercle bacilli in a mineral oil vehicle) at a dose of 2 mg./kg. of body weight. Test compounds were administered orally in a 1.5% starch vehicle at various doses once daily on days 0 through 13 post challenge. Control rats were treated in a similar manner, but given only starch vehicle. On the 14th and 21st day post challenge the diameter of the injected paw (primary lesion) was measured by micrometer caliper. The volume of inflamed paws were estimated from these measurements and the results are expressed as percent inhibition of swelling as compared to controls. At the same time, the other inflamed sites, such as ears, paws and tail (secondary lesions) were observed and each rat was graded as to degree of inflammation and swelling present. The grading is based on a scale of 0 to 24, where 0 represents a complete absence of induced arthritic nodules and 24 represents the maximum degree of inflammation. The mean grade for each treated group is calculated and the effects of each compound are expressed as percent inhibition of the control grade. Table I below records the results of tests conducted with the compounds of this invention and known anti-inflammatory agents. The compounds of this invention appear to suppress the progression of the arthritis and associated joint deterioration.

SMILES: COc1ccc2c(c1)c(CC(=O)O)c(C)n2C(=O)c1ccc(Cl)cc1 [Indomethocin, reference compound]
- arthritic paw swelling; joint and bone deterioration [1]: prevent joint and bone deterioration
- Inhibition of Swelling (primary lesion) ([2]; oral 0.25 mg./kg., Day 14): 30%
- Inhibition of Swelling (primary lesion) ([2]; oral 0.25 mg./kg., Day 21): 4%
- Inhibition of Swelling (primary lesion) ([2]; oral 0.5 mg./kg., Day 14): 40%
- Inhibition of Swelling (primary lesion) ([2]; oral 0.5 mg./kg., Day 21): 20%
- Inhibition of Swelling (primary lesion) ([2]; oral 1 mg./kg., Day 14): 46%
- Inhibition of Swelling (primary lesion) ([2]; oral 1 mg./kg., Day 21): 19%
- Inhibition of Swelling (primary lesion) ([2]; oral 2 mg./kg., Day 14): 51%
- Inhibition of Swelling (primary lesion) ([2]; oral 2 mg./kg., Day 21): 24%

SMILES: CCCCC1C(=O)N(c2ccccc2)N(c2ccccc2)C1=O [Phenylbutazone, reference compound]
- Inhibition of Swelling (primary lesion) ([2]; oral 18.8 mg./kg., Day 14): 31%
- Inhibition of Swelling (primary lesion) ([2]; oral 18.8 mg./kg., Day 21): 7%
- Inhibition of Swelling (primary lesion) ([2]; oral 37.5 mg./kg., Day 14): 56%
- Inhibition of Swelling (primary lesion) ([2]; oral 37.5 mg./kg., Day 21): 14%
- Inhibition of Swelling (primary lesion) ([2]; oral 75 mg./kg., Day 14): 62%
- Inhibition of Swelling (primary lesion) ([2]; oral 75 mg./kg., Day 21): 28%
- Inhibition of Swelling (primary lesion) ([2]; oral 150 mg./kg., Day 14): 75%
- Inhibition of Swelling (primary lesion) ([2]; oral 150 mg./kg., Day 21): 44%

SMILES: N#CCC(=O)c1ccsc1 [β-Oxo-3-thiophenepropionitrile, β-oxo-3-thiophenepropionitrile]
- Dead/Treated at 21 Days ([2]; oral 50 mg./kg. of body weight): 1/18
- Inhibition of Swelling (primary lesion) ([2]; oral 50 mg./kg., Day 14): 61%
- Mean Weight Gain ([2]; oral 50 mg./kg., Day 14): 53 grams
- Inhibition of Swelling (primary lesion) ([2]; oral 50 mg./kg., Day 21): 26%
- Mean Weight Gain ([2]; oral 50 mg./kg., Day 21): 50 grams

SMILES: CC(=O)Oc1ccccc1C(=O)O [Aspirin, reference compound]
- Inhibition of Swelling (primary lesion) ([2]; oral 50 mg./kg., Day 14): 23%
- Inhibition of Swelling (primary lesion) ([2]; oral 50 mg./kg., Day 21): 3%
- Inhibition of Swelling (primary lesion) ([2]; oral 100 mg./kg., Day 14): 36%
- Inhibition of Swelling (primary lesion) ([2]; oral 100 mg./kg., Day 21): 13%
- Inhibition of Swelling (primary lesion) ([2]; oral 200 mg./kg., Day 14): 48%
- Inhibition of Swelling (primary lesion) ([2]; oral 200 mg./kg., Day 21): 27%
- Inhibition of Swelling (primary lesion) ([2]; oral 400 mg./kg., Day 14): 73%
- Inhibition of Swelling (primary lesion) ([2]; oral 400 mg./kg., Day 21): 48%

SMILES: N#CC=C(N)c1ccsc1 [β-Amino-3-thiopheneacrylonitrile, β-amino-3-thiopheneacrylonitrile]
- Dead/Treated at 21 Days ([2]; oral 50 mg./kg. of body weight): 2/18
- Inhibition of Swelling (primary lesion) ([2]; oral 50 mg./kg., Day 14): 52%
- Mean Weight Gain ([2]; oral 50 mg./kg., Day 14): 47 grams
- Inhibition of Swelling (primary lesion) ([2]; oral 50 mg./kg., Day 21): 41%
- Mean Weight Gain ([2]; oral 50 mg./kg., Day 21): 54 grams

SMILES: N#CC=C(N)c1cccs1 [β-Amino-2-thiopheneacrylonitrile, β-amino-2-thiopheneacrylonitrile]
- Dead/Treated at 21 Days ([2]; oral 50 mg./kg. of body weight): 1/33
- % Inhibition of Control Grade (secondary lesion) ([2]; oral 50 mg./kg., Day 14): 21%
- Inhibition of Swelling (primary lesion) ([2]; oral 50 mg./kg., Day 14): 44%
- Mean Weight Gain ([2]; oral 50 mg./kg., Day 14): 54 grams
- % Inhibition of Control Grade (secondary lesion) ([2]; oral 50 mg./kg., Day 21): 6%
- Inhibition of Swelling (primary lesion) ([2]; oral 50 mg./kg., Day 21): 23%
- Mean Weight Gain ([2]; oral 50 mg./kg., Day 21): 50 grams
- Dead/Treated at 21 Days ([2]; oral 100 mg./kg. of body weight): 2/18
- % Inhibition of Control Grade (secondary lesion) ([2]; oral 100 mg./kg., Day 14): 25%
- Inhibition of Swelling (primary lesion) ([2]; oral 100 mg./kg., Day 14): 49%
- Mean Weight Gain ([2]; oral 100 mg./kg., Day 14): 45 grams
- % Inhibition of Control Grade (secondary lesion) ([2]; oral 100 mg./kg., Day 21): 16%
- Inhibition of Swelling (primary lesion) ([2]; oral 100 mg./kg., Day 21): 27%
- Mean Weight Gain ([2]; oral 100 mg./kg., Day 21): 51 grams
- Dead/Treated at 21 Days ([2]; oral 200 mg./kg. of body weight): 6/18
- % Inhibition of Control Grade (secondary lesion) ([2]; oral 200 mg./kg., Day 14): 80%
- Inhibition of Swelling (primary lesion) ([2]; oral 200 mg./kg., Day 14): 70%
- Mean Weight Gain ([2]; oral 200 mg./kg., Day 14): 36 grams
- % Inhibition of Control Grade (secondary lesion) ([2]; oral 200 mg./kg., Day 21): 57%
- Inhibition of Swelling (primary lesion) ([2]; oral 200 mg./kg., Day 21): 61%
- Mean Weight Gain ([2]; oral 200 mg./kg., Day 21): 53 grams
